Some test systems named below: OVCAR-3; U-251; NCI-H23; HL-60; COLO 205; SK-MEL-2; HCT-116; UACC-257; CAKI-1; OVCAR-5; 786-0; MDA-MB-435; LOX IMVI; NCI-H460; SNB-75; M14; UACC-62; ACHN; HOP-62; Malme-3M.
Assay in all cases: DTP human tumour cell line panel, 48 h

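Growth conditions: 96-well plates. Treatment: test compound, 48 hours, 5 concentrations. Analysis: linear interpolation between bracketing concentrations; unreached endpoints set to highest concentration. GI50 marks 50% less growth.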 The source made the active and inactive calls. No stated cut-off is given here; in the data, active = GI50 up to about 1.1 µM and inactive = higher.

The values that follow come from ChEMBL document CHEMBL1201862, “PubChem BioAssay data set” (2004).

As for `O=C(NCCc1n[nH]c2c1C(=O)C=C(Nc1ccccc1)C2=O)OCc1ccccc1`, the GI50 in the assay on OVCAR-3, with U-251, in the assay with NCI-H23, with HL-60, in the assay with COLO 205 and with SK-MEL-2 was > 100 µM (inactive) throughout. Also, the GI50 (in general, the concentration giving 50% growth inhibition) is 97.3 µM (inactive) with HCT-116; > 100 µM (inactive) in the assay with UACC-257; > 100 µM (inactive) with CAKI-1; > 100 µM (inactive) with OVCAR-5; 47.1 µM (inactive) in the assay on 786-0; > 100 µM (inactive) in the assay with MDA-MB-435. The GI50 in the assay with LOX IMVI was > 100 µM (inactive); in the assay with NCI-H460 it was > 100 µM (inactive); with SNB-75 it was > 100 µM (inactive); with M14, > 100 µM (inactive); with UACC-62, 8.09 µM (inactive); with ACHN, > 100 µM (inactive).

For `COc1ccc(/N=C(C)/C(C)=N/c2ccc(OC)cc2)cc1`, the GI50 with OVCAR-3 was > 100 µM (inactive); in the assay on U-251, > 100 µM (inactive); in the assay on HOP-62 it was > 100 µM (inactive); in the assay on NCI-H23 it was 73.6 µM (inactive); in the assay on HL-60, 52.2 µM (inactive); with Malme-3M it was > 100 µM (inactive). In addition, the GI50 with COLO 205 is 14.4 µM (inactive); with SK-MEL-2 it was > 100 µM (inactive); in the assay on HCT-116, 72.6 µM (inactive); in the assay with UACC-257 it was 56.9 µM (inactive); with CAKI-1, 35.5 µM (inactive); with OVCAR-5, > 100 µM (inactive). Further, the GI50 in the assay with 786-0 is > 100 µM (inactive); in the assay on MDA-MB-435, 8.95 µM (inactive); with LOX IMVI, 5.02 µM (inactive); in the assay with NCI-H460, 20.3 µM (inactive); in the assay with SNB-75 it was > 100 µM (inactive); in the assay with M14, 9.91 µM (inactive). The GI50 in the assay with ACHN was 3.36 µM (inactive).

Take `Cc1ccc2nc(Cl)c(/C=N/N3C(=O)/C(=C/c4cccc([N+](=O)[O-])c4)N=C3c3ccccc3)cc2c1`: the GI50 in the assay with OVCAR-3 was 30.5 µM (inactive); in the assay with U-251 it was 89.7 µM (inactive); in the assay on HOP-62, 50.2 µM (inactive); in the assay on HL-60, 39.2 µM (inactive); in the assay with COLO 205, 38.7 µM (inactive); with SK-MEL-2, 22.2 µM (inactive). The GI50 in the assay with HCT-116 is 27.9 µM (inactive); in the assay on UACC-257 it was 61.1 µM (inactive); in the assay on CAKI-1 it was 66.4 µM (inactive); in the assay with OVCAR-5, > 100 µM (inactive); with 786-0, > 100 µM (inactive); in the assay with MDA-MB-435, 20.7 µM (inactive). The GI50 in the assay on LOX IMVI was 87.1 µM (inactive); in the assay with NCI-H460, 34.4 µM (inactive); in the assay on SNB-75, 59.6 µM (inactive); in the assay on M14, 63.1 µM (inactive); in the assay on UACC-62, 34 µM (inactive); in the assay with ACHN, 49.1 µM (inactive).

`O=C1C=C(Nc2cccnc2)c2ccccc2/C1=N/O`: the GI50 was 1.81 µM (inactive) in the assay with OVCAR-3; 26.3 µM (inactive) with U-251; 23 µM (inactive) with HOP-62; 19.7 µM (inactive) in the assay on NCI-H23; 0.789 µM (active) with HL-60; 19.4 µM (inactive) in the assay with COLO 205. Also, the GI50 in the assay on SK-MEL-2 is 31.3 µM (inactive); in the assay on HCT-116, 26.6 µM (inactive); with UACC-257, 33.1 µM (inactive); with CAKI-1, 40.4 µM (inactive); with OVCAR-5 it was > 100 µM (inactive); with 786-0, 57.7 µM (inactive). In addition, the GI50 was 12.7 µM (inactive) with MDA-MB-435; 26.3 µM (inactive) with LOX IMVI; 22.8 µM (inactive) in the assay on NCI-H460; 5.69 µM (inactive) with SNB-75; 23.2 µM (inactive) with M14; 20.9 µM (inactive) in the assay with UACC-62. Besides, the GI50 with ACHN is 23.2 µM (inactive).

Turning to `COC(=O)CN1SC2(SC13C(C)(C)C(=O)C3(C)C)C(C)(C)C(=O)C2(C)C`, the GI50 was 41.6 µM (inactive) with OVCAR-3; 94.4 µM (inactive) with U-251; 91 µM (inactive) in the assay with HOP-62; > 100 µM (inactive) in the assay with NCI-H23; 50.6 µM (inactive) in the assay with Malme-3M; 37.3 µM (inactive) with COLO 205. For the same compound, the GI50 was 60.7 µM (inactive) in the assay on SK-MEL-2; 46 µM (inactive) with HCT-116; 48.2 µM (inactive) in the assay with UACC-257; 54.2 µM (inactive) with CAKI-1; > 100 µM (inactive) in the assay on OVCAR-5; > 100 µM (inactive) in the assay with 786-0. Also, the GI50 with MDA-MB-435 is 56.2 µM (inactive); in the assay on LOX IMVI it was 46.9 µM (inactive); in the assay with NCI-H460, > 10 µM (inactive); in the assay with SNB-75 it was 37.8 µM (inactive); in the assay on M14 it was > 100 µM (inactive); with UACC-62 it was > 100 µM (inactive). Further, in the assay with ACHN, the GI50 is > 100 µM (inactive).

Consider `COc1cc2c(c(OC)c1OC)C(=O)c1c(O)cc(C)c(OC)c1C2=O`, for which the GI50 in the assay on OVCAR-3 is > 100 µM (inactive); with U-251, 94 µM (inactive); in the assay with HOP-62, 50.7 µM (inactive); in the assay on NCI-H23, > 100 µM (inactive); in the assay with HL-60 it was > 100 µM (inactive); in the assay on Malme-3M it was > 100 µM (inactive). In addition, the GI50 with COLO 205 was > 100 µM (inactive); in the assay with SK-MEL-2 it was 88.1 µM (inactive); in the assay with HCT-116, 99.1 µM (inactive); in the assay on UACC-257 it was 54.6 µM (inactive); with CAKI-1, 44.6 µM (inactive); in the assay on OVCAR-5, > 100 µM (inactive). The GI50 in the assay with 786-0 was 78.3 µM (inactive); with MDA-MB-435, 91.8 µM (inactive); in the assay with LOX IMVI it was 86.3 µM (inactive); in the assay with NCI-H460 it was 63.1 µM (inactive); with SNB-75, > 100 µM (inactive); with M14 it was > 100 µM (inactive). Besides, the GI50 in the assay with ACHN is 46 µM (inactive).

For `O=S(=O)(O)c1ccc2c(/N=N/c3cccc4ccccc34)c(O)ccc2c1`, the GI50 is > 100 µM (inactive) in the assay with OVCAR-3; 87.1 µM (inactive) in the assay with U-251; > 100 µM (inactive) with HOP-62; > 100 µM (inactive) in the assay with NCI-H23; > 100 µM (inactive) in the assay on HL-60; > 100 µM (inactive) in the assay on Malme-3M. For the same compound, the GI50 with COLO 205, with SK-MEL-2, in the assay on HCT-116, in the assay on UACC-257, in the assay on CAKI-1 and in the assay on OVCAR-5 was > 100 µM (inactive) in each case. In addition, the GI50 in the assay with 786-0, with MDA-MB-435, with LOX IMVI, in the assay on SNB-75, with M14 and in the assay with UACC-62 was > 100 µM (inactive) throughout. Further, the GI50 with ACHN was > 100 µM (inactive).

With `Brc1cccc(/N=N/N2CCCC2)c1`, the GI50 in the assay on OVCAR-3 was > 100 µM (inactive); in the assay on U-251, 80.5 µM (inactive); in the assay with HOP-62, > 100 µM (inactive); with NCI-H23 it was 67.9 µM (inactive); with HL-60 it was 16.4 µM (inactive); in the assay on COLO 205, > 100 µM (inactive). In addition, the GI50 was > 100 µM (inactive) with SK-MEL-2; 92.3 µM (inactive) in the assay with HCT-116; > 100 µM (inactive) in the assay with UACC-257; 75.5 µM (inactive) with CAKI-1; > 100 µM (inactive) in the assay on OVCAR-5; > 100 µM (inactive) in the assay with 786-0. Also, the GI50 in the assay with MDA-MB-435 was > 100 µM (inactive); in the assay with LOX IMVI, 77.1 µM (inactive); in the assay with NCI-H460, > 100 µM (inactive); in the assay with SNB-75, 65.5 µM (inactive); in the assay with M14, > 100 µM (inactive); with UACC-62 it was > 100 µM (inactive). In addition, the GI50 in the assay with ACHN was > 100 µM (inactive).
